# ChEMBL document CHEMBL1127526, “A comparison of the cytotoxic and physical properties of aziridinyl quinone derivatives based on the pyrrolo[1,2-a]benzimidazole and pyrrolo[1,2-a]indole ring systems” (J Med Chem, 1994)
# Test: The highest concentration employed in the cytotoxicity assay was reported
# Assay type: functional
structure (smiles),measurement,value
CC(=O)OC1CCn2c1nc1c2C(=O)C(C)=C(N2CC2)C1=O (stereo unspecified),Concentration,1 M
